Measured values reported in patent US20200337992A1, “Auricular Cleaning Composition” (priority 2015, published 2020).

Test: In vitro cerumenolytic effect test on synthetic cerumen
Conditions: for % of cerumen removed: Table 3, total after four successive applications; for cerumenolytic activity / cerumenolytic effect: cf. FIG. 1, in vitro test
Description: Thus, the selected formula of the synthetic cerumen which makes it possible to evaluate the in vitro cerumenolytic effect of agents is the following: [table] In order to select a new combination of cerumenolytic agents, the cerumenolytic effect test was employed using the cerumen described in the table above. […] The distribution is carried out in such a way that the cerumen is present only in the bottom of the tube and not on the edges or the opening, which could distort the results. The tubes are then left to stand for the amount of time required for the cerumen to solidify. The distribution is carried out the day before the in vitro test in order to leave the cerumen with a minimum of 24 h to cool and solidify. The dimensions of the test tube, the temperature at which the test was carried out and the amount of synthetic cerumen were chosen to represent as faithfully as possible, in vitro, the dog ear canal. According to these parameters, the procedure followed for measuring the in vitro effectiveness of an agent or of a combination of agents having a cerumenolytic effect is the following: =>The test tube containing only the cerumen is weighed before the test. […] =>The test tube is then attached to a stirring turbine and immersed in a bath of water heated to 35° C. (the water height is sufficient for the content of the tube (cerumen+test product) to be immersed. =>The stirring is maintained for 20 minutes at 50 rpm. […] This step makes it possible to remove the product and the cerumen debris detached by the cerumenolytic agent. =>At the end of the time elapsed, the tube is weighed to evaluate the amount of cerumen removed. =>This process is carried out four times in a row, on each same tube, in order to simulate and evaluate the application number required to remove the cerumen plug present in the dog ear canal. Each time, the cerumen remaining at the bottom of the tube is dried and then weighed. […] As previously indicated, in order to check the effectiveness of an agent, the test tubes are weighed before the test is carried out and after the phase of leaving to stand upside down for 1 h. The removal of the cerumen is, according to this process, evaluated as for this example: =>Weight of the tube A before test 1: 3.493 g and weight of the tube A after test 1: 3.449 g =>Percentage of cerumen removed: […] The percentages are thus calculated for each test: from 1 to 4. The total percentage of cerumen removed is obtained after having repeated the operation successively four times for one and the same tube.

[1] = 500 mg synthetic cerumen, 2 ml test product, 35° C., 20 minutes at 50 rpm

SMILES | % of cerumen removed [1] [%] | % cerumen removed (after test 4) (Table 4, 500 mg synthetic cerumen, 2 ml test product, 35° C., 20 minutes at 50 rpm, after test 4) [%] | cerumenolytic activity / cerumenolytic effect
CCOCCOCCO [100% Transcutol ®, 2-(2-ethoxyethoxy)ethanol] | 100 | 100.0 | ~100%
CC(C)O [100% Isopropyl alcohol, isopropyl alcohol] | 66 |  | about 60%
